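Grown in 96-well plates, cells were treated for 48 hours with each compound at five concentrations. Insufficient inhibition: endpoint recorded as highest concentration tested. Here, GI50 denotes the concentration required for 50% inhibition of growth.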 The source made the active and inactive calls. No stated cut-off is given here; in the data, active = GI50 up to about 1.1 µM and inactive = higher.
Tests used:
Assay in all cases: growth of human tumour cells (NCI), 48 h
786-0 = test system: 786-0
A549 = test system: A549
COLO 205 = test system: COLO 205
IGROV-1 = test system: IGROV-1
KM12 = test system: KM12
LOX IMVI = test system: LOX IMVI
M14 = test system: M14
NCI-H226 = test system: NCI-H226
OVCAR-3 = test system: OVCAR-3
SF-539 = test system: SF-539
SK-MEL-5 = test system: SK-MEL-5
SK-OV-3 = test system: SK-OV-3
SN12C = test system: SN12C
SNB-19 = test system: SNB-19
UACC-62 = test system: UACC-62
MOLT-4 = test system: MOLT-4

Measured: GI50

O=C(Nc1nc2ncn(CCO)c2c(=S)[nH]1)c1ccccc1
inactive: 786-0 > 100 µM | A549 > 100 µM | COLO 205 > 100 µM | IGROV-1 > 100 µM | KM12 > 100 µM | LOX IMVI > 100 µM | M14 > 100 µM | NCI-H226 > 100 µM | OVCAR-3 > 100 µM | SF-539 > 100 µM | SK-MEL-5 > 100 µM | SK-OV-3 > 100 µM | SN12C > 100 µM | SNB-19 > 100 µM | UACC-62 > 100 µM

COc1ccc(C(=O)O/N=C2\CCCC\C2=C/c2ccccc2)cc1
inactive: 786-0 33.8 µM | A549 > 100 µM | COLO 205 > 100 µM | IGROV-1 > 100 µM | LOX IMVI > 100 µM | M14 > 100 µM | MOLT-4 > 100 µM | SF-539 27.5 µM | SK-MEL-5 > 100 µM | SK-OV-3 > 100 µM | SN12C > 100 µM | SNB-19 58.3 µM | UACC-62 > 100 µM

CC(C)C(=O)N[C@@H](C)C(=O)N(Cc1ccc2ccccc2c1)N=O
inactive: 786-0 > 100 µM | A549 82.4 µM | COLO 205 > 100 µM | IGROV-1 95.9 µM | KM12 > 10 µM | LOX IMVI 46 µM | M14 84.1 µM | MOLT-4 39.4 µM | OVCAR-3 62.7 µM | SF-539 > 100 µM | SK-MEL-5 > 100 µM | SK-OV-3 > 100 µM | SN12C > 100 µM | SNB-19 > 100 µM | UACC-62 48 µM

CCOC(=O)C(OCC1CC=CCC1)Sc1ccccc1 (stereo unspecified)
inactive: 786-0 > 100 µM | A549 > 100 µM | COLO 205 > 100 µM | IGROV-1 > 100 µM | KM12 > 100 µM | LOX IMVI > 100 µM | M14 > 100 µM | OVCAR-3 > 100 µM | SF-539 > 100 µM | SK-MEL-5 > 100 µM | SK-OV-3 > 100 µM | SN12C > 100 µM | SNB-19 > 100 µM | UACC-62 > 100 µM

CC(C)=CC(=O)CC(=O)C(=O)NCCNC(=O)C(=O)CC(=O)C=C(C)C
inactive: 786-0 > 50 µM | A549 > 50 µM | COLO 205 > 50 µM | IGROV-1 > 50 µM | KM12 > 50 µM | LOX IMVI > 50 µM | M14 > 50 µM | NCI-H226 > 50 µM | OVCAR-3 > 50 µM | SF-539 > 50 µM | SK-OV-3 > 50 µM | SN12C > 50 µM | SNB-19 > 50 µM | UACC-62 > 50 µM

CCCC(=O)Nc1ccc(O)c2c1C1CCCCCC21 (stereo unspecified)
inactive: 786-0 > 100 µM | A549 > 100 µM | COLO 205 > 100 µM | KM12 96.4 µM | LOX IMVI > 100 µM | M14 > 100 µM | MOLT-4 56.9 µM | NCI-H226 > 100 µM | SK-MEL-5 72.4 µM | SK-OV-3 > 100 µM | SN12C > 100 µM | SNB-19 > 100 µM | UACC-62 64 µM

O=C1C=C2CCCC2C(C(=O)O)(C(=O)O)C1 (stereo unspecified)
inactive: 786-0 > 100 µM | A549 > 100 µM | COLO 205 > 100 µM | IGROV-1 > 100 µM | KM12 > 100 µM | LOX IMVI > 100 µM | M14 > 100 µM | MOLT-4 > 100 µM | OVCAR-3 > 100 µM | SF-539 > 100 µM | SK-MEL-5 > 100 µM | SK-OV-3 > 100 µM | SN12C > 100 µM | SNB-19 > 100 µM | UACC-62 > 100 µM

C#Cc1ccccc1N1C(=O)C=CC1=O
inactive: 786-0 > 100 µM | A549 > 100 µM | COLO 205 > 100 µM | IGROV-1 > 100 µM | M14 > 100 µM | MOLT-4 > 100 µM | NCI-H226 > 100 µM | OVCAR-3 > 100 µM | SK-MEL-5 > 100 µM | SK-OV-3 > 100 µM | SN12C > 100 µM | SNB-19 > 100 µM | UACC-62 > 100 µM

CCCC(=O)C(CC)/C(CCC(=O)N(Cc1ccccc1)Cc1ccccc1)=N/NC(=O)C[N+](C)(C)C (stereo unspecified)
inactive: 786-0 > 100 µM | A549 > 100 µM | COLO 205 > 100 µM | IGROV-1 > 100 µM | KM12 > 100 µM | M14 > 100 µM | MOLT-4 > 100 µM | NCI-H226 > 100 µM | OVCAR-3 > 100 µM | SF-539 > 100 µM | SK-MEL-5 > 100 µM | SK-OV-3 > 100 µM | SN12C > 100 µM | SNB-19 > 100 µM

O=C1NC2=C(CCCCC/C2=N\O)C12CCCCCC2
inactive: 786-0 > 100 µM | A549 > 100 µM | COLO 205 > 100 µM | IGROV-1 > 100 µM | KM12 > 100 µM | LOX IMVI > 100 µM | M14 > 100 µM | MOLT-4 > 100 µM | OVCAR-3 > 100 µM | SF-539 > 100 µM | SK-MEL-5 > 100 µM | SK-OV-3 > 100 µM | SN12C > 100 µM | SNB-19 > 100 µM | UACC-62 > 100 µM
